Experimental data published in ChEMBL document CHEMBL1147867, “Identification of antitumour activity of novel derivatives of 8-aryl-2,6,7,8-tetrahydroimidazo[2,1-c][1,2,4]triazine-3,4-dione and 8-aryl-4-imino-2,3,7,8-tetrahydroimidazo[2,1-c][1,2,4]triazin-3(6H)-one” (Bioorg Med Chem, 2007).
Active and inactive are the calls of the source. The calls are words filed in the database; no cut-off is given here.

Legend:
T47D [1] = experiment: Cytotoxicity against human T47D cells at 50 ug/ml after 72 hrs; assay type: functional
HeLa [2] = experiment: Cytotoxicity against human HeLa cells at 10 ug/ml after 72 hrs; assay type: functional
Jurkat = experiment: Anticancer activity against human jurkat cells; assay type: functional, cell-based
[3] = Cytotoxicity against Vero cells at 10 ug/ml after 72 hrs; assay type: cell-based; conditions: chlorocebus sabaeus, read-out: Inhibition
HT-29 = experiment: Anticancer activity against human HT 29 cells; assay type: functional, cell-based
T47D [4] = experiment: Cytotoxicity against human T47D cells at 10 ug/ml after 72 hrs; assay type: functional
A549 [5] = experiment: Anticancer activity against human A549 cells at 10 ug/ml after 72 hrs; assay type: functional; conditions: A549, 72 h
[6] = Cytotoxicity against human LS180 cells at 10 ug/ml after 72 hrs; assay type: functional; conditions: LS180, 72 h
[7] = Cytotoxicity against human LS180 cells at 50 ug/ml after 72 hrs; assay type: functional; conditions: LS180, 72 h
A549 [8] = experiment: Anticancer activity against human A549 cells at 50 ug/ml after 72 hrs; assay type: functional; conditions: A549, 72 h
[9] = Cytotoxicity against Vero cells at 50 ug/ml after 72 hrs; assay type: cell-based; conditions: chlorocebus sabaeus, read-out: Inhibition
HeLa [10] = experiment: Cytotoxicity against human HeLa cells at 50 ug/ml after 72 hrs; assay type: functional
T47D [11] = experiment: Induction of DNA damage in T47D cells at 37.9 uM; assay type: functional, cell-based; conditions: Homo sapiens
[12] = Acute toxicity in mouse; assay type: organism-based; conditions: in vivo
RPMI-8226 [13] = experiment: Cell viability in human RPMI 8226 ECACC 87012702 cancer cells at 50 uM after 24 hrs by MTT assay; assay type: functional
HeLa [14] = experiment: Induction of DNA damage in HeLa cells at 37.9 uM; assay type: functional, cell-based; conditions: Homo sapiens
[15] = Cell viability in HSF cells at 1 uM after 24 hrs by MTT assay; assay type: cell-based, Fibroblast; conditions: human, read-out: Activity
RPMI-8226 [16] = experiment: Cell viability in human RPMI 8226 ECACC 87012702 cancer cells at 100 uM after 24 hrs by MTT assay; assay type: functional
RPMI-8226 [17] = experiment: Cell viability in human RPMI 8226 ECACC 87012702 cancer cells at 1 uM after 24 hrs by MTT assay; assay type: functional
[18] = Cell viability in HSF cells at 50 uM after 24 hrs by MTT assay; assay type: cell-based, Fibroblast; conditions: human, read-out: Activity
[19] = Cell viability in HSF cells at 100 uM after 24 hrs by MTT assay; assay type: functional, Homo sapiens, Fibroblast
LS180 = experiment: Induction of DNA damage in LS180 cells at 37.9 uM; assay type: functional, cell-based; conditions: Homo sapiens

Row | Structure (SMILES) | inhibition at 50 µg/mL (T47D [1]) | inhibition at 10 µg/mL (HeLa [2]) | cytotoxicity at 72 h, 10 ug/ml [3] | inhibition at 10 µg/mL (T47D [4]) | inhibition at 10 µg/mL (A549 [5]) | inhibition at 10 µg/mL [6] | inhibition at 50 µg/mL [7] | inhibition at 50 µg/mL (A549 [8]) | cytotoxicity at 72 h, 50 ug/ml [9] | inhibition at 50 µg/mL (HeLa [10]) | further results
1 | Cc1ccc(N2CCn3c2n[nH]c(=O)c3=N)cc1 | 0% | 0% | 0% | 0% | 37% | 32% | 45% | 38% | 0% | 0% | Activity (Jurkat): Active; Activity (HT-29): Active
2 | O=c1[nH]nc2n(c1=O)CCN2c1ccc(Cl)cc1 | 1% | 2% | 0% | 5% | 0% | 50% | 35% | 15% | 7% | 26% | Activity (T47D [11]): Active; LD50 [12]: > 2000 mg/kg; Activity (RPMI-8226 [13]): 89%; Activity (HeLa [14]): Active; viability at 24 h, 1 µM [15]: 99%; Activity (RPMI-8226 [16]): 61%; Activity (RPMI-8226 [17]): 104%; viability at 24 h, 50 µM [18]: 95%; Activity [19]: 96%; Activity (LS180): Active
